Test results reported in PubChem BioAssay AID330 (DTP/NCI, 2004).
“And” between values parts separate entries of the source, which are not always exact repeats. Identical values can stand only once. Inconclusive results and toxic doses are left out. The calls were made as follows: active = survival T/C of 150% or more; inactive = T/C below 125% in these data.

System: P388 leukemia ip, CD2F1 mice, survival T/C
Assay: NCI In Vivo Anticancer Drug Screen. Data for tumor model P388 Leukemia (intraperitoneal) in CD2F1 (CDF1) mice
Conditions: endpoint: median survival time, higher = longer survival
Method in brief: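 Mice carrying the transplanted tumor received test compound or vehicle. Survival was recorded in each group, and the value is the treated-group measurement divided by that of the vehicle-treated control group.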

[1] = dose: 3.75 mg/kg/injection, schedule: Q01DX009 (ip), vehicle: saline
[2] = dose: 7.5 mg/kg/injection, schedule: Q01DX009 (ip), vehicle: saline
[3] = dose: 15.0 mg/kg/injection, schedule: Q01DX009 (ip), vehicle: saline
[4] = dose: 100.0 mg/kg/injection, schedule: Q04DX002 (ip), vehicle: saline with Tween-80
[5] = dose: 200.0 mg/kg/injection, schedule: Q04DX002 (ip), vehicle: saline with Tween-80
[6] = dose: 60.0 mg/kg/injection, schedule: Q01DX005 (ip), vehicle: saline with Tween-80
[7] = dose: 120.0 mg/kg/injection, schedule: Q01DX005 (ip), vehicle: saline with Tween-80
[8] = dose: 240.0 mg/kg/injection, schedule: Q01DX005 (ip), vehicle: saline with Tween-80
[9] = dose: 50.0 mg/kg/injection, schedule: Q01DX005 (ip), vehicle: Klucel (hydroxypropylcellulose) (HPC)
[10] = dose: 100.0 mg/kg/injection, schedule: Q01DX005 (ip), vehicle: Klucel (hydroxypropylcellulose) (HPC)
[11] = dose: 200.0 mg/kg/injection, schedule: Q01DX005 (ip), vehicle: Klucel (hydroxypropylcellulose) (HPC)
[12] = dose: 50.0 mg/kg/injection, schedule: Q01DX005 (ip), vehicle: saline with Tween-80
[13] = dose: 100.0 mg/kg/injection, schedule: Q01DX005 (ip), vehicle: saline with Tween-80
[14] = dose: 200.0 mg/kg/injection, schedule: Q01DX005 (ip), vehicle: saline with Tween-80
[15] = dose: 400.0 mg/kg/injection, schedule: Q04DX002 (ip), vehicle: saline with Tween-80

Measured: T/C

O=CN1CCN(c2ccc([N+](=O)[O-])c3no[n+]([O-])c23)CC1
inactive: dose: 1.87 mg/kg/injection, schedule: Q01DX009 (ip), vehicle: saline 107 % of control | dose: 1.87 mg/kg/injection, schedule: Q01DX009 (ip), vehicle: suspension in saline 94 % of control | [1] 92 % of control | dose: 3.75 mg/kg/injection, schedule: Q01DX009 (ip), vehicle: suspension in saline 113 % of control | [2] 86 % of control | dose: 7.5 mg/kg/injection, schedule: Q01DX009 (ip), vehicle: suspension in saline 116 % of control | [3] 91 % of control | dose: 15.0 mg/kg/injection, schedule: Q01DX009 (ip), vehicle: suspension in saline 116 % of control

O=C(O)CS(=O)NN(c1ccccc1)c1ccccc1 (stereo not given)
inactive: [4] 102 % of control | [5] 102 % of control

CC1=CC(C)(C)Nc2ccc(Cc3ccc4c(c3)C(C)=CC(C)(C)N4)cc21
inactive: [6] 101 % of control | [7] 94 % of control | [8] 95 % of control

c1ccc2c(c1)C1OC2c2ccccc21
inactive: [9] 99 % of control | [10] 108 % of control | [11] 100 % of control

O=C(O)CCCCCCCCC(=O)CCl
inactive: dose: 25.0 mg/kg/injection, schedule: Q01DX009 (ip), vehicle: saline 99 % of control | dose: 50.0 mg/kg/injection, schedule: Q01DX009 (ip), vehicle: saline 115 % of control

O=C(CC1=NC2NN(c3ccccc3)C(=O)C2=C1CC(=O)C(c1ccccc1)c1ccccc1)C(c1ccccc1)c1ccccc1 (stereo not given)
inactive: dose: 60.0 mg/kg/injection, schedule: Q01DX005 (ip), vehicle: suspension in saline 98 % of control | dose: 120.0 mg/kg/injection, schedule: Q01DX005 (ip), vehicle: suspension in saline 102 % of control | dose: 240.0 mg/kg/injection, schedule: Q01DX005 (ip), vehicle: suspension in saline 100 % of control

CCCCCCCCCCCCCCCC(CCCC)CCCCCC (stereo not given)
inactive: dose: 50.0 mg/kg/injection, schedule: Q01DX001 (ip), vehicle: saline sonified 100 % of control | dose: 100.0 mg/kg/injection, schedule: Q01DX001 (ip), vehicle: saline sonified 100 % of control | dose: 200.0 mg/kg/injection, schedule: Q01DX001 (ip), vehicle: saline sonified 100 % of control

CC(C)c1c(C[N+](C)([O-])C(C)Cc2ccccc2)n(C)n(-c2ccccc2)c1=O (stereo not given)
inactive: [6] 106 % of control | [7] 102 % of control | [8] 100 % of control

COc1cc([C@H]2c3cc4c(cc3CC3COC(=O)[C@@H]32)OCO4)cc(Br)c1O (stereo not given in full)
inactive: dose: 15.0 mg/kg/injection, schedule: Q01DX005 (ip), vehicle: saline with Tween-80 101 % of control | dose: 30.0 mg/kg/injection, schedule: Q01DX005 (ip), vehicle: saline with Tween-80 101 % of control | [6] 99 % of control and 104 % of control | [7] 110 % of control | [8] 110 % of control

O=C1CCC(Cc2ccccc2)CN1 (stereo not given)
inactive: [6] 97 % of control | [7] 101 % of control | [8] 97 % of control

COc1cc2c(cc1OC)C1C(CC(=O)O)CCCN1CC2 (stereo not given)
inactive: [9] 112 % of control | [10] 100 % of control | [11] 100 % of control

Cc1ccc(C)c(C[n+]2ccccc2C2(C)OCCO2)c1
inactive: [12] 101 % of control | [13] 103 % of control | [14] 100 % of control

C=C(CO)C(=O)OC1CC(=C)C2CC(O)C(=C)C2[C@H]2OC(=O)C(=C)C12 (stereo not given in full)
inactive: [1] 92 % of control | [2] 99 % of control | [3] 108 % of control

Cc1cc(=O)oc2c1ccc1c(O)cccc12
inactive: [6] 106 % of control | [7] 100 % of control

CN(CC(O)C(O)CN(C)N=O)N=O (stereo not given)
inactive: dose: 100.0 mg/kg/injection, schedule: Q01DX001 (ip), vehicle: Klucel (hydroxypropylcellulose) (HPC) 88 % of control | dose: 200.0 mg/kg/injection, schedule: Q01DX001 (ip), vehicle: Klucel (hydroxypropylcellulose) (HPC) 94 % of control | dose: 400.0 mg/kg/injection, schedule: Q01DX001 (ip), vehicle: Klucel (hydroxypropylcellulose) (HPC) 100 % of control

CCCCOC(=O)/C=C/C(=O)N1CC(C)N(C(=O)/C=C/C(=O)OCCCC)CC1C (stereo not given)
inactive: [9] 105 % of control | [10] 100 % of control | [11] 100 % of control

CC(C)N=C(Nc1ccccc1)c1ccccc1
inactive: dose: 12.5 mg/kg/injection, schedule: Q01DX009 (ip), vehicle: saline with Tween-80 93 % of control | dose: 25.0 mg/kg/injection, schedule: Q01DX009 (ip), vehicle: saline with Tween-80 89 % of control | dose: 50.0 mg/kg/injection, schedule: Q01DX009 (ip), vehicle: saline + Tween-80 + alcohol 88 % of control

C/C(=N\Nc1ccccn1)c1ccccn1
inactive: dose: 6.25 mg/kg/injection, schedule: Q01DX005 (ip), vehicle: saline with Tween-80 104 % of control | dose: 12.5 mg/kg/injection, schedule: Q01DX005 (ip), vehicle: saline with Tween-80 100 % of control | dose: 25.0 mg/kg/injection, schedule: Q01DX005 (ip), vehicle: saline with Tween-80 101 % of control

CC(NCc1ccccc1)[Si](C)(C)C (stereo not given)
inactive: [12] 102 % of control | [13] 105 % of control

c1ccc(C2C(c3nc4ccccc4o3)C(c3ccccc3)C2c2nc3ccccc3o2)cc1 (stereo not given)
inactive: [9] 91 % of control | [10] 89 % of control | [11] 86 % of control

CCOC(=O)C1Cc2c([nH]c(=O)[nH]c2=O)OC1c1ccc(OC)cc1 (stereo not given)
inactive: [9] 97 % of control | [10] 100 % of control | [11] 97 % of control

Cc1cccc(C(C#N)C(=O)CCCC(=O)Nc2ccccc2[N+](=O)[O-])c1 (stereo not given)
inactive: [6] 98 % of control | [7] 100 % of control | [8] 94 % of control

CC1CC(C)(C)OC(C2CC=CCC2C)O1 (stereo not given)
inactive: [12] 97 % of control | [13] 100 % of control | [14] 109 % of control

C[CH2][Pb]([CH2]C)([CH2]C)[O]C(=O)c1ccc2ccccc2n1
inactive: dose: 0.25 mg/kg/injection, schedule: Q01DX009 (ip), vehicle: saline with Tween-80 100 % of control | dose: 0.5 mg/kg/injection, schedule: Q01DX009 (ip), vehicle: saline with Tween-80 103 % of control | dose: 1.0 mg/kg/injection, schedule: Q01DX009 (ip), vehicle: saline with Tween-80 99 % of control | dose: 2.0 mg/kg/injection, schedule: Q01DX009 (ip), vehicle: saline with Tween-80 94 % of control | dose: 4.0 mg/kg/injection, schedule: Q01DX009 (ip), vehicle: saline with Tween-80 112 % of control | dose: 8.0 mg/kg/injection, schedule: Q01DX009 (ip), vehicle: saline with Tween-80 90 % of control

CC1C2=C(CC(C)(C)CC2=O)OC2=C1C(=O)CC(C)(C)C2
inactive: dose: 50.0 mg/kg/injection, schedule: Q01DX009 (ip), vehicle: saline with Tween-80 103 % of control | dose: 100.0 mg/kg/injection, schedule: Q01DX009 (ip), vehicle: saline with Tween-80 104 % of control | dose: 200.0 mg/kg/injection, schedule: Q01DX009 (ip), vehicle: saline with Tween-80 99 % of control

COC1/C=C/OC2(C)Oc3c(C)c(O)c4c(c3C2=O)C(=O)C2=C(NC(=NC2)/C(C)=C\C=C\C(C)C(O)C(C)C(O)C(C)C(OC(C)=O)C1C)C4=O (stereo not given)
inactive: dose: 6.25 mg/kg/injection, schedule: Q04DX003 (ip), vehicle: other 94 % of control | dose: 12.5 mg/kg/injection, schedule: Q04DX003 (ip), vehicle: other 101 % of control | dose: 25.0 mg/kg/injection, schedule: Q04DX003 (ip), vehicle: other 113 % of control | dose: 50.0 mg/kg/injection, schedule: Q04DX003 (ip), vehicle: other 109 % of control | dose: 100.0 mg/kg/injection, schedule: Q04DX003 (ip), vehicle: other 122 % of control

O=c1c(N=Nc2ccccc2Cl)c(O)n(-c2ccc(Cl)cc2)c(=S)n1-c1ccc(Br)cc1
inactive: [4] 99 % of control | [5] 99 % of control | [15] 112 % of control

CC(C)(C)N=C(NC#N)Nc1cccnc1Cl
inactive: [4] 103 % of control | [5] 94 % of control | [15] 92 % of control

C=CN=NNc1cc(OC)ccc1OC
inactive: dose: 100.0 mg/kg/injection, schedule: Q04DX003 (ip), vehicle: saline + Tween-80 + alcohol 105 % of control | dose: 200.0 mg/kg/injection, schedule: Q04DX003 (ip), vehicle: saline + Tween-80 + alcohol 103 % of control | dose: 400.0 mg/kg/injection, schedule: Q04DX003 (ip), vehicle: saline + Tween-80 + alcohol 102 % of control
